Measurements published in BigSolDB 2.1.

CCCCN1CCCCC1C(=O)Nc1c(C)cccc1C.Cl (stereo unspecified)
solubility (mole fraction)
Details	293.15 K	298.15 K	303.15 K	308.15 K	313.15 K	318.15 K	323.15 K	328.15 K	333.15 K
in DMF	0.0036	0.0049	0.0062	0.0079	0.0096	0.0117	0.0128	0.0149	0.0172
in acetic acid	0.0322	0.0367	0.0399	0.0475	0.0601	0.0702	0.0879	0.109	0.13
in ethanol	0.0087	0.0099	0.0115	0.0139	0.0169	0.0207	0.0254	0.0312	0.0372
in isopropanol	0.002	0.0023	0.0028	0.0032	0.0037	0.0045	0.0051	0.006	0.0069
in methanol	0.0116	0.014	0.0167	0.0206	0.0249	0.0295	0.0346	0.0407	–
in n-butanol	0.0108	0.0121	0.0142	0.0164	0.0198	0.0236	0.0288	0.0355	0.0412
in n-propanol	0.0051	0.0058	0.0084	0.0101	0.0135	0.0172	0.0216	0.0281	0.0342
in water	0.0017	0.0019	0.0021	0.0022	0.0025	0.0028	0.0032	0.0036	0.0041
